Laboratory results as given in patent US20080306007A1, “AGENTS FOR PROPHYLAXIS OR TREATMENT OF NEUROLOGICAL RELATED DISEASES AND CONDITIONS” (Newcastle Innovation Limited, priority 2007, published 2008).

Key:
[1] = tested on: synaptosomes (synaptic vesicle turnover); experiment: SV turnover assay (FM2-10 loading/unloading) in synaptosomes; assay type: cell-based, rat
Procedure: In all SV recycling studies synaptosomes were prepared from rat cerebral cortex by centrifugation on discontinuous percoll gradients (Dunkley et al. 1986). The glutamate release assay was performed as described before (Cousin and Robinson 2000a). Data is presented as Ca^2+-dependent glutamate release, calculated as the difference between release in plus and minus Ca^2+ solutions. Penetratin peptides (Genemed Synthesis) were preincubated with the synaptosomes for 30 min before stimulation and had no effect on Ca^2+-independent release of glutamate.
Loading of FM2-10 (Molecular Probes) into recycling synaptosomal SVs was measured as previously described. Data is presented as Ca^2+-dependent FM2-10 unloading, which is the difference between release after loading in plus and minus Ca^2+ solutions. Where indicated, synaptosomes were preincubated with penetratin peptide for 30 min prior to stimulation of FM2-10 loading. […] The same assay was used to monitor the effect of penetratin peptide on SV exocytosis. However, in this instance, the synaptosomes were loaded with FM2-10 in plus Ca^2+ Krebs-like solution and, where indicated, were preincubated with penetratin peptide for 30 min prior to stimulation of FM2-10 unloading. Data is presented as Ca^2+-dependent FM2-10 unloading. The SV internalisation assay was performed as previously described.
SVE in synaptosomes was measured to determine whether the phosphorylation sites in dynamin I play a direct role in SVE. Since isolated nerve terminals cannot be transfected with DNA, a membrane-permeable peptide strategy was employed. Mimetic peptides (DynI769-784AA (SEQ ID No. 8) and DynI769-784EE (SEQ ID No. 9)) were designed corresponding to the amino acid sequence of the dynamin I phospho-box (FIG. 5a) and were tagged with a penetratin heptapeptide RRMKWKK (SEQ ID No. 12) to facilitate their delivery into synaptosomes. Briefly, synaptosomes were preincubated in the presence or absence of either penetratin peptide (250 μM) prior to FM2-10 loading stimulated by 30 mM KCl. Accumulated FM2-10 was unloaded by another KCl stimulus (indicated by the solid bar). […] If the phosphorylation-regulated syndapin I interaction itself is essential for SVE, the penetratin-linked peptides may inhibit the process. […] The DynI769-784AA peptide (250 μM) inhibited turnover by more than 40% (57.1±2.1% of control), compared to less than 20% with the DynI769-784EE peptide (250 μM, 81.1±2.4% of control).

[2] = tested on: U2OS cells; experiment: Transferrin (Tfn) endocytosis (RME) in U2OS cells; assay type: cell-based; settings: 15 min peptide preincubation at various concentrations, Tfn 15 min at 37° C.
Procedure: Briefly, non-neuronal U2OS cells were preincubated with vehicle only or each peptide at various concentrations for 15 min. Cells were then incubated with Tfn for 15 min at 37° C., acid washed, fixed and internalized Tfn was detected by fluorescence microscopy. Quantitative analysis of endocytosis in the presence of different concentrations of the peptides is shown as mean fluorescence as a percent of fluorescence in control cells. The results shown in FIG. 11 are representative of 2 independent experiments. Endocytosis in control cells (no peptide) is expressed as 100%.

DynI769-784AA: Dynamin I phospho-box mimetic peptide (residues 769-784), AA mutant, tagged with penetratin heptapeptide RRMKWKK (RRMKWKKPAGRRAPTSAPTPQRR; listed as Rattus norvegicus)
inhibition of SV turnover ([1]; peptide 250 μM): more than 40%
SV turnover ([1]; peptide 250 μM, 30 min preincubation, FM2-10 loading with 30 mM KCl): 57.1±2.1 % of control
retrieval efficiency (SV turnover/exocytosis) ([1]; using data from either exocytosis assay, value below one = selective SVE inhibition): robust inhibition
endocytosis of transferrin (Tfn), RME [2]: without effect
